# Reference: patent US20210087206A1, “MACROCYCLIC KINASE INHIBITORS AND THEIR USE” (TURNING POINT THERAPEUTICS, INC., priority 2017, published 2021)
# Experiments:
# Assay in all cases: Cell proliferation assay (CellTiter-Glo)
# Assay type in all cases: cell-based
# KG-1 cell (OP2-FGFR1) = settings: Homo sapiens, anti-cell proliferation, 72 hours
# How it was run: (§1)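 Cells seeded 24 h, then exposed to compounds for 72 h at 37° C., 5% CO2. Proliferation read by CellTiter-Glo luminescent ATP detection; IC50 from dose-response fits.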
# KM12 (TPM3-TRKA) = settings: Homo sapiens, anti-cell proliferation, 72 hours
# How it was run: as §1
# BaF3 EML4-ALK = biological target: T1, BaF3 EML4-ALK (Homo sapiens, UniProt Q9UM73); settings: anti-cell proliferation, 72 hours
# T1 construct: The EML4-ALK gene (variant 1) was synthesized at GenScript and cloned into pCDH-CMV-MCS-EF1-Puro plasmid (System Biosciences, Inc); fused on or other part: EML4 N-terminal part (variant 1: exons 1-13, with the coiled-coil that oligomerises the fusion) fused to the intracellular part of ALK, which contains the kinase domain; Q9HC35 (Echinoderm microtubule-associated protein-like 4)
# How it was run: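 Ba/F3 cells were lentivirally transduced with EML4-ALK variant 1 and selected for puromycin resistance and IL-3-independent growth. Proliferation was measured by CellTiter-Glo ATP luminescence to give IC50.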
# T1 sequence (Q9UM73 whole entry, stated change not applied, the tested form may be a part): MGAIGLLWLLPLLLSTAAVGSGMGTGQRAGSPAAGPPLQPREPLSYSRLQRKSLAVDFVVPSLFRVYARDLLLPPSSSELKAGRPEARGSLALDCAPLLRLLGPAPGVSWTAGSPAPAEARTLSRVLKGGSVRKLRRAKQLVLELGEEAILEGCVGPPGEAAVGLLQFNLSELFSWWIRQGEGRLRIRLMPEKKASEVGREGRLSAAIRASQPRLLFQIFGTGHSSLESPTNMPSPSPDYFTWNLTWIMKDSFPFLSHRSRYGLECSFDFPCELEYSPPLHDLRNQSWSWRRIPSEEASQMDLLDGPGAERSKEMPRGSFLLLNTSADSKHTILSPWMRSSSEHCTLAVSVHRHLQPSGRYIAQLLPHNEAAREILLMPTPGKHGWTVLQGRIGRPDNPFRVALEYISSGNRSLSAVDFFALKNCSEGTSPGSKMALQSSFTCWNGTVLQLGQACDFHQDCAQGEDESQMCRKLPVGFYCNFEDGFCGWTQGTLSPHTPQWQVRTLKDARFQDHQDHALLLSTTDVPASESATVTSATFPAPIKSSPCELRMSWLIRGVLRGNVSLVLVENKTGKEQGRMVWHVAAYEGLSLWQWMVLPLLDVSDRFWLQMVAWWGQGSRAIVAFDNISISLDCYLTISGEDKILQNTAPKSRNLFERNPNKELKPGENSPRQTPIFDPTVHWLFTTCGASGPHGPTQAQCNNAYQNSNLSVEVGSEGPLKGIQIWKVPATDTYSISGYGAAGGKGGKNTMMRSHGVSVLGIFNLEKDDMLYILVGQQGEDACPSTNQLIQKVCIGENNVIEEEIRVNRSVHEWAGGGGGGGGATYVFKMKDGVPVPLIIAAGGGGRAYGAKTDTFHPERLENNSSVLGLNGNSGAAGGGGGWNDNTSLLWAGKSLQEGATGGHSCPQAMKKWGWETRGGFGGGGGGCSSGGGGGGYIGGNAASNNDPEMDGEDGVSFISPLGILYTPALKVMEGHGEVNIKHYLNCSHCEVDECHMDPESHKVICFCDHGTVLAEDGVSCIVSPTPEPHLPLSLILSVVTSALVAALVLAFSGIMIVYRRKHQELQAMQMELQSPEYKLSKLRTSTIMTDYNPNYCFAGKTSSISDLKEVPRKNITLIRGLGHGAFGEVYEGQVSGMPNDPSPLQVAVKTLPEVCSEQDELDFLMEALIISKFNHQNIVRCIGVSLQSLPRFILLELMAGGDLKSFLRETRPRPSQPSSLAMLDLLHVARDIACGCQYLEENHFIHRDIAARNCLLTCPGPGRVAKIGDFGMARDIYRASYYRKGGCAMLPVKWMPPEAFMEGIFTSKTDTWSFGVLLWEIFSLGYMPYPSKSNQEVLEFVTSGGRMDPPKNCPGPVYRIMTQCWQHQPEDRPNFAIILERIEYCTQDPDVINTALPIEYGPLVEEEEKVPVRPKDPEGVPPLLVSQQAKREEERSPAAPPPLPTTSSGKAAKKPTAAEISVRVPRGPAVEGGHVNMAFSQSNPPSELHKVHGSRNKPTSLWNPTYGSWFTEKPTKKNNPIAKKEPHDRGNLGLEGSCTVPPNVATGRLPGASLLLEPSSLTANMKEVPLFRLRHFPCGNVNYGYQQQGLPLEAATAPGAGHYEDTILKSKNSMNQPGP
Compound,IC50 (BaF3 EML4-ALK) [nM],IC50 (KG-1 cell (OP2-FGFR1)) [nM],IC50 (KM12 (TPM3-TRKA)) [nM]
"C[C@H]1CNC(=O)c2cnn3cc4c(nc23)N(Cc2cc(F)cnc2O1)C1(CCC1)CO4 [Compound 56, (12′S)-8′-fluoro-12′-methyl-3′H,6′H,12′H,13′H,14′H,15′H-spiro[cyclobutane-1,4′-[2,11]-dioxa[5,10,14,17,18,19]-hexaaza[18,1](metheno)[1,4]-oxazino[3,4-i]pyrazolo[4,3-f]-pyrido[3,2-l][1,4,8,10]oxatriaza-cyclotridecin]-15′-one]",919,3000,< 0.2
"C[C@H]1CNC(=O)c2cnn3cc4c(nc23)N(Cc2cc(F)cnc2O1)C1(CCCC1)CO4 [Compound 57, (12′S)-8′-fluoro-12′-methyl-3′H,6′H,12′H,13′H,14′H,15′H-spiro[cyclopentane-1,4′-[2,11]-dioxa[5,10,14,17,18,19]hexaaza-[18,1](metheno)[1,4]oxazino[3,4-i]pyrazolo[4,3-f]pyrido[3,2-l] [1,4,8,10]oxatriazacyclotridecin]-15′-one]",2210,4000,< 0.2
"C[C@@H]1COc2ncc(F)cc2CN2c3nc4c(cnn4cc3OC[C@H]2C(N)=O)C(=O)N1 [Compound 60, (4S,13R)-8-fluoro-13-methyl-15-oxo-3,4,12,13,14,15-hexahydro-6H-18,1-(metheno)[1,4]oxazino[3,4-i]pyrazolo[4,3-f]pyrido[3,2-l][1,4,8,10]oxatriazacyclotridecine-4-carboxamide]",> 10000,> 10000,51.2
"C[C@@H]1COc2ncc(F)cc2CN2C[C@H](O)COc3cn4ncc(c4nc32)C(=O)N1 [Compound 61, (4S,14R)-9-fluoro-4-hydroxy-14-methyl-4,5,14,15-tetrahydro-3H,7H-19,1-(methano)[1,4]-oxazepino[3,4-i]pyrazolo[4,3-f]-pyrido[3,2-l][1,4,8,10]oxatriaza-cyclotridecin-16(13H)-one]",4000,482,482
"C[C@H]1CNC(=O)c2cnn3cc4c(nc23)N(Cc2cc(F)cnc2O1)C1(CO4)CC(F)(F)C1 [Compound 64, (12′S)-3,3,8′-trifluoro-12′-methyl-3′H,6′H,12′H,13′H,14′H,15′H-spiro[cyclobutane-1,4′-[2,11]-dioxa[5,10,14,17,18,19]hexaaza-[18,1](metheno)[1,4]oxazino[3,4-i]pyrazolo[4,3-f]pyrido[3,2-l] [1,4,8,10]oxatriazacyclotridecin]-15′-one]",1230,10000,< 0.2
"CC[C@@H]1COc2cn3ncc4c3nc2N1Cc1cc(F)cnc1OCC(C)(C)NC4=O [Compound 65, (4R)-4-ethyl-8-fluoro-13,13-dimethyl-3,4,13,14-tetrahydro-6H-18,1-(metheno)[1,4]oxazino[3,4-i]pyrazolo[4,3-f]pyrido[3,2-l][1,4,8,10]oxatriazacyclotridecin-15(12H)-one]",164,42.1,< 0.2
"C[C@@H]1COc2cn3ncc4c3nc2N1Cc1cc(F)cnc1OCC1(CC1)CNC4=O [Compound 67, (16′R)-12′-fluoro-16′-methyl-4′H,5′H,6′H,8′H,14′H,16′H,17′H-spiro[cyclopropane-1,7′-[9,18]-dioxa[1,2,5,10,15,20]hexaaza-[1,19](metheno)[1,4]oxazino[4,3-e]pyrazolo[3,4-h]pyrido[2,3-b] [1,5,7,11]oxatriazacyclotetradecin]-4′-one]",32.4,8.8,< 0.2
"CC1CCNC(=O)c2cnn3cc4c(nc23)N(Cc2cc(F)cnc2O1)[C@H](C)CO4 (stereo partly drawn) [Compound 69, (16R)-12-fluoro-8,16-dimethyl-5,6,7,8,16,17-hexahydro-4H,14H-1,19-(metheno)[1,4]oxazino[4,3-e]pyrazolo[3,4-h]pyrido[2,3-b] [1,5,7,11]oxatriazacyclotetradecin-4-one]",87.9,23.7,< 0.2
"C[C@@H]1COc2cn3ncc4c3nc2N1Cc1cc(F)cnc1OCCC(C)(C)NC4=O [Compound 70, (16R)-12-fluoro-6,6,16-trimethyl-5,6,7,8,16,17-hexahydro-4H,14H-1,19-(metheno)[1,4]oxazino[4,3-e]pyrazolo[3,4-h]pyrido[2,3-b] [1,5,7,11]oxatriazacyclotetradecin-4-one]",35.7,51.7,< 0.2
"CC[C@@H]1COc2cn3ncc4c3nc2N1Cc1cc(F)cnc1OCC1(CC1)NC4=O [Compound 72, (4′R)-4′-ethyl-8′-fluoro-3′H,4′H,6′H,12′H,14′H,15′H-spiro[cyclopropane-1,13′-[2,11]dioxa[5,10,14,17,18,19]hexaaza-[18,1](metheno)[1,4]oxazino-[3,4-i]pyrazolo[4,3-f]pyrido[3,2-l][1,4,8,10]oxatriazacyclotridecin]-15′-one]",18.8,3.9,< 0.2
"C[C@@H]1COc2ncc(F)cc2CN2CC(F)(F)COc3cn4ncc(c4nc32)C(=O)N1 [Compound 74, (14R)-4,4,9-trifluoro-14-methyl-4,5,14,15-tetrahydro-3H,7H-19,1-(metheno)[1,4]oxazepino[3,4-i]-pyrazolo[4,3-f]pyrido[3,2-l] [1,4,8,10]oxatriazacyclotridecin-16(13H)-one]",> 10000,3000,84
"CC[C@@H]1COc2cn3ncc4c3nc2N1Cc1cc(F)cnc1OCC[C@H](C)NC4=O [Compound 75, (6S,16R)-16-ethyl-12-fluoro-6-methyl-5,6,7,8,16,17-hexahydro-4H,14H-1,19-(metheno)[1,4]-oxazino[4,3-e]pyrazolo[3,4-h]-pyrido[2,3-b][1,5,7,11]oxatriaza-cyclotetradecin-4-one]",19.8,9.7,< 0.2
"CC[C@@H]1COc2cn3ncc4c3nc2N1Cc1cc(F)cnc1OCC(C)(C)CNC4=O [Compound 76, (16R)-16-ethyl-12-fluoro-7,7-dimethyl-5,6,7,8,16,17-hexahydro-4H,14H-1,19-(metheno)[1,4]-oxazino[4,3-e]pyrazolo[3,4-h]-pyrido[2,3-b][1,5,7,11]oxatriaza-cyclotetradecin-4-one]",35.3,0.8,< 0.2
"C[C@H]1CNC(=O)c2cnn3cc4c(nc23)N(Cc2cc(F)cnc2O1)CC(F)(F)CO4 [Compound 77, (13S)-4,4,9-trifluoro-13-methyl-4,5,14,15-tetrahydro-3H,7H-19,1-(metheno)[1,4]oxazepino[3,4-i]-pyrazolo[4,3-f]pyrido[3,2-l] [1,4,8,10]oxatriazacyclotridecin-16(13H)-one]",> 10000,10000,446

# Second part, led by results:
IC50 (BaF3 EML4-ALK) [nM],Compound,IC50 (KG-1 cell (OP2-FGFR1)) [nM],IC50 (KM12 (TPM3-TRKA)) [nM]
203,"C[C@@H]1COc2ncc(F)cc2CN2c3nc4c(cnn4cc3OCC23CCC3)C(=O)N1 [Compound 58, (13′R)-8′-fluoro-13′-methyl-3′H,6′H,12′H,13′H,14′H,15′H-spiro[cyclobutane-1,4′-[2,11]-dioxa[5,10,14,17,18,19]hexaaza-[18,1](metheno)[1,4]oxazino-[3,4-i]pyrazolo[4,3-f]pyrido-[3,2-l][1,4,8,10]oxatriazacyclo-tridecin]-15′-one]",1620,< 0.2
1020,"C[C@@H]1COc2ncc(F)cc2CN2c3nc4c(cnn4cc3OCC23CCCC3)C(=O)N1 [Compound 59, (13′R)-8′-fluoro-13′-methyl-3′H,6′H,12′H,13′H,14′H,15′H-spiro[cyclopentane-1,4′-[2,11]-dioxa[5,10,14,17,18,19]hexaaza-[18,1](metheno)[1,4]oxazino-[3,4-i]pyrazolo[4,3-f]pyrido-[3,2-l][1,4,8,10]oxatriazacyclo-tridecin]-15′-one]",2000,< 0.2
576,"C[C@@H]1COc2ncc(F)cc2CN2c3nc4c(cnn4cc3OCC23CC(F)(F)C3)C(=O)N1 [Compound 63, (13′R)-3,3,8′-trifluoro-13′-methyl-3′H,6′H,12′H,13′H,14′H,15′H-spiro[cyclobutane-1,4′-[2,11]-dioxa[5,10,14,17,18,19]hexaaza-[18,1](metheno)[1,4]oxazino[3,4-i]pyrazolo[4,3-f]pyrido[3,2-l] [1,4,8,10]oxatriazacyclotridecin]-15′-one]",10000,< 0.2
339,"C[C@@H]1COc2ncc(F)cc2CN2c3nc4c(cnn4cc3OCC2(C)C)C(=O)N1 [Compound 68, (13R)-8-fluoro-4,4,13-trimethyl-3,4,13,14-tetrahydro-6H-18,1-(metheno)[1,4]oxazino[3,4-i]-pyrazolo[4,3-f]pyrido[3,2-l] [1,4,8,10]oxatriazacyclotridecin-15(12H)-one]",5690,< 0.2
19.9,"CC1CNC(=O)c2cnn3cc4c(nc23)N(Cc2cc(F)cnc2OC1)[C@H](C)CO4 (stereo partly drawn) [Compound 71, (16R)-12-fluoro-7,16-dimethyl-5,6,7,8,16,17-hexahydro-4H,14H-1,19-(metheno)[1,4]oxazino[4,3-e]pyrazolo[3,4-h]pyrido[2,3-b] [1,5,7,11]oxatriazacyclotetradecin-4-one]",11.9,< 0.2
93.1,"CC[C@@H]1COc2cn3ncc4c3nc2N1Cc1cc(F)cnc1OCC1(CCC1)NC4=O [Compound 73, (4′R)-4′-ethyl-8′-fluoro-3′H,4′H,6′H,12′H,14′H,15′H-spiro[cyclobutane-1,13’-[2,11]-dioxa[5,10,14,17,18,19]hexaaza-[18,1](metheno)[1,4]oxazino[3,4-i]pyrazolo[4,3-f]pyrido[3,2-l] [1,4,8,10]oxatriazacyclotridecin]-15′-one]",5,< 0.2
